Experimental data: patent publication US6953779B2, “Melanocortin receptor antagonists and modulations of melanocortin receptor activity” (The Regents of the University of California, priority 1998, dated 2005)
Square brackets hold non-standard residues; d marks the D form. Peptide text beside a SMILES is read from it. * marks the point of attachment. Benzoyl(4-OMe) = COc1ccc(C(=O)*)cc1; d2Thi = N[C@H](Cc1cccs1)C(=O)O

Tests used:
[1] = test system: dispersion of melanin initiated by norepinephrine, serotonin, vasotocin, PACAP-27; experiment: Selectivity: melanin dispersion initiated by other ligands in melanophores; format: cell-based, Xenopus laevis; settings: 30 nM
Experimental: The selectivity of the MC receptor antagonism by dynorphin A(6-12) analogs was examined.
Melanophore responses were determined by measuring absorbance (OD) ratios taken through a monolayer of cells using a FisherBiotec BT2000 Microplate Reader (Pittsburgh, Pa.). Absorbance was measured before and after a 90 minute exposure to test peptides and then expressed as percent of initial absorbance. (Measurements were taken after 60 minutes pretreatment with 10 nM melatonin to initiate readings from an aggregated state.)

[2] = molecular target: T1, ACTH (MCR-2) receptor endogenous to murine Y1 adrenocortical cells (Mus musculus, UniProt Q64326); experiment: cAMP concentration-response to ACTH-(1-24) in Y1 cells; format: cell-based; settings: for shift of the concentration-response curve of ACTH-(1-24) to the right: 30 μM
T1 construct: the ACTH (MCR-2) receptor endogenous to murine Y1 adrenocortical cells; endogenous in cells; host or cells: murine Y1 adrenocortical cells
Experimental: (§1) Peptide concentration-response measurements are made in HEK-293 cells by quantifying cAMP levels using a [8-^3H]-CAMP kit from Amersham. Briefly, cells transfected with MC receptors, plated to confluency in 96-well tissue culture plates, are rinsed for 1 hr with 70% (vol/vol) L-15 medium containing 0.5% bovine serum albumin. […] Cellular debris was separated from extracted samples by centrifugation, 400 μL aliquots of the supernatant lyophilized, and total cAMP content quantified by isotope counting.
(§2) Concentration response measurements were made also as described in Example 2, but in Xenopus fibroblasts, COS-7, HEK-293, and Y1 cells.

[3] = test system: atypical MC receptor in Cos-7 cells; experiment: cAMP concentration-response to α-MSH in Cos-7 cells; format: cell-based
Experimental: as §1, §2

MCR-4 [4] = molecular target: T2, MCR-4 (Homo sapiens, UniProt P32245); experiment: cAMP concentration-response to α-MSH in HEK-293 cells transfected with human MCR-4; format: cell-based; design: expressed in transfected cells; settings: presence and absence of 30 μM antagonist
Experimental: A second method for studying MCR antagonists is to use mammalian cells stably transfected with the cDNA for various human MCR.
Human embryonic kidney (HEK-293) cells were maintained in modified Eagle's medium (DMEM/H-16/F-12) with 10% fetal calf serum (FBS), 100 U/mL penicillin “G” and 100 μg/mL streptomycin (P/S; Gemini). Transfections were performed using cDNA containing the human MCR-1 receptor (pcDNAI/NEO.hMC1), or MCR-4 (pcCMV.hMC4) receptors. HEK-293 cells are stably transformed with the human MCR-1 and MCR-4 receptors by electroporating 20 μg of plasmid cDNA using a Gene Pulser transfection apparatus (450 V, 960 μF; BioRad, Hercules, Calif.). After six days, stable MC clonal cell lines were selected by addition of 400 μg/ml G-418 to the medium and kept frozen for future use.
as §1
(§3) HEK-293 cells were maintained and transfected As described in Example 2. […]

MCR-3 [5] = molecular target: T3, MCR-3 (Homo sapiens, UniProt P41968); experiment: cAMP concentration-response to α-MSH in HEK-293 cells transfected with human MCR-3; format: cell-based; design: expressed in transfected cells; settings: presence and absence of 30 μM antagonist
Excerpt: (§4) A second method for studying MCR antagonists is to use mammalian cells stably transfected with the cDNA for various human MCR. These transfected cells manifest an increased CAMP response to α-MSH stimulation and agents which antagonize MCR will block this stimulating effect of α-MSH. The inhibitory effects of antagonists can be quantified by the change in the effective concentration (EC50) of α-MSH i the presence of antagonist, or by computation of Ki value by a Schild regression analysis.
Peptide concentration-response measurements are made in HEK-293 cells by quantifying cAMP levels using a [8-^3H]-CAMP kit from Amersham. Briefly, cells transfected with MC receptors, plated to confluency in 96-well tissue culture plates, are rinsed for 1 hr with 70% (vol/vol) L-15 medium containing 0.5% bovine serum albumin. After a 30 min exposure to test ligands, HEK-293 cells are rinsed twice with ice-cold 70% phosphate-buffered saline (0.07 g/L CaCl2, 0.07 g/L MgCl2.6H2O, 0.14 g/L KH2PO4, 1.51 g/L Na2HPO4.7H2O, 0.14 g/L KCl, 5.6 g/L NaCl, pH 7.4), and intracellular CAMP extracted with 1 mL of 60% (vol/vol) ethanol. Cellular debris was separated from extracted samples by centrifugation, 400 μL aliquots of the supernatant lyophilized, and total cAMP content quantified by isotope counting.
as §3

MCR-1 [6] = molecular target: T4, MCR-1 (Homo sapiens, UniProt Q01726); experiment: cAMP concentration-response to α-MSH in HEK-293 cells transfected with human MCR-1; format: cell-based; design: expressed in transfected cells; settings: presence and absence of 30 μM antagonist
Excerpt: as §4
Human embryonic kidney (HEK-293) cells were maintained in modified Eagle's medium (DMEM/H-16/F-12) with 10% fetal calf serum (FBS), 100 U/mL penicillin “G” and 100 μg/mL streptomycin (P/S; Gemini). Transfections were performed using cDNA containing the human MCR-1 receptor (pcDNAI/NEO.hMC1), or MCR-4 (pcCMV.hMC4) receptors. HEK-293 cells are stably transformed with the human MCR-1 and MCR-4 receptors by electroporating 20 μg of plasmid cDNA using a Gene Pulser transfection apparatus (450 V, 960 μF; BioRad, Hercules, Calif.). […]
Peptide concentration-response measurements are made in HEK-293 cells by quantifying cAMP levels using a [8-^3H]-CAMP kit from Amersham. […] Cellular debris was separated from extracted samples by centrifugation, 400 μL aliquots of the supernatant lyophilized, and total cAMP content quantified by isotope counting. […]

[7] = test system: heat-induced edema in the anesthetized rat's paw; experiment: Suppression of heat-induced edema in the anesthetized rat's paw (anti-inflammatory); format: in vivo
[8] = molecular target: T5, MC receptors endogenous to Xenopus melanophores (Xenopus laevis, UniProt A0A1L8GF34); settings: Quillan and Sadée 1997, cited from earlier work
T5 sequence (A0A1L8GF34 1-317): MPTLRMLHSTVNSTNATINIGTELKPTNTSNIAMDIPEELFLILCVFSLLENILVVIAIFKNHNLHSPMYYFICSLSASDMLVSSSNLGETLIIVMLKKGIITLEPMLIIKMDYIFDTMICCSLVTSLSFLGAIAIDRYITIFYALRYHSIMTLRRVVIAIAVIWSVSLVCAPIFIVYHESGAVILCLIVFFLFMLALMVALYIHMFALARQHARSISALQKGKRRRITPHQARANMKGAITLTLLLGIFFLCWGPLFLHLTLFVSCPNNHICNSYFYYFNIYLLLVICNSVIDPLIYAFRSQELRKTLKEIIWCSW

MCR-1 [9] = molecular target: T4, MCR-1; settings: at concentrations up to 100 nM; Ollmann et al.; cited from earlier work
MCR-4 [10] = molecular target: T2, MCR-4; settings: Ollmann et al.; cited from earlier work
MCR-3 [11] = molecular target: T3, MCR-3; settings: Ollmann et al.; cited from earlier work
[12] = test system: B16-F1 mouse melanoma cells; settings: Siegrist et al.; read-out: antiproliferative half-maximal effective concentration; cited from earlier work

T1 sequence (Q64326 whole entry): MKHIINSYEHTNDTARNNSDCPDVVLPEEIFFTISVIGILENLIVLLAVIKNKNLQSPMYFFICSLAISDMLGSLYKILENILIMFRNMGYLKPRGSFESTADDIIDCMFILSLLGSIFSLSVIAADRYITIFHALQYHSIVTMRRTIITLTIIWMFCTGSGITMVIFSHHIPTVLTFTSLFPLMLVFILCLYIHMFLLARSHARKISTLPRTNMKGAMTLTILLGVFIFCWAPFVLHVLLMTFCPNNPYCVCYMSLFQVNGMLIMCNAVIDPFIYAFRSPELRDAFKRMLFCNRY
T1 sequence (Q9D159 whole entry partner): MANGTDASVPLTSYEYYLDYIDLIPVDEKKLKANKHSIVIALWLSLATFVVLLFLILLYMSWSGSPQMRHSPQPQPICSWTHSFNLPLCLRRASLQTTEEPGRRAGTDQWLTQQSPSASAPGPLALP
T3 sequence (P41968 whole entry): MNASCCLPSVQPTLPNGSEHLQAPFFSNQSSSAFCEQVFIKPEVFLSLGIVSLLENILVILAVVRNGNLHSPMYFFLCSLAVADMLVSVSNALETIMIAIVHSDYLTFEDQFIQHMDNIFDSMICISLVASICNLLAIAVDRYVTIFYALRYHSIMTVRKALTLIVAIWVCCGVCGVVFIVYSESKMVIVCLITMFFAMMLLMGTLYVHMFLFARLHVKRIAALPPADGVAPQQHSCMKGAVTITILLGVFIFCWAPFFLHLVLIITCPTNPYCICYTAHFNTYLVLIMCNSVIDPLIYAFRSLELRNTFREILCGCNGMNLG
T2 sequence (P32245 whole entry): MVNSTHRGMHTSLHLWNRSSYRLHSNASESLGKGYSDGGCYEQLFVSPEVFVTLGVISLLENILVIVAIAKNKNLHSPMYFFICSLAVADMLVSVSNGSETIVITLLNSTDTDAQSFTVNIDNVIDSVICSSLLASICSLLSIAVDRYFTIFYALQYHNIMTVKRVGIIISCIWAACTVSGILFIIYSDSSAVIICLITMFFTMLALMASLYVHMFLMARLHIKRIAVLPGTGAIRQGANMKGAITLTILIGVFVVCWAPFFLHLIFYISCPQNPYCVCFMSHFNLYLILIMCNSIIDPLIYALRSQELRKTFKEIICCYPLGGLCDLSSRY
T4 sequence (Q01726 whole entry): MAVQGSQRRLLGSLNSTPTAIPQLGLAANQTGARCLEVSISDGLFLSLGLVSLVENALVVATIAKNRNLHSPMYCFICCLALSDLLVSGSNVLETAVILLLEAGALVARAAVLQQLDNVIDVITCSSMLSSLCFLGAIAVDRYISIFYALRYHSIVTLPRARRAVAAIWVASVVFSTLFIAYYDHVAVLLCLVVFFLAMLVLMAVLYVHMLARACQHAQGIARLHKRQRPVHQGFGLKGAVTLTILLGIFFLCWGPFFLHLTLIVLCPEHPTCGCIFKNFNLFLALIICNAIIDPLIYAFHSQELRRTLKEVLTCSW

CSCC[C@@H]1NC(=O)[C@H](C)NC(=O)[C@H]([C@@H](C)O)NC(=O)CNC(=O)[C@H](CC(C)C)NC(=O)[C@H](CCCCN)NC(=O)[C@H](CCCNC(=N)N)NC(=O)[C@@H]2CSSC[C@@H]3NC(=O)[C@@H]4CCCN4C(=O)[C@H](C(C)C)NC(=O)[C@H](CCC(N)=O)NC(=O)[C@H](CCC(N)=O)NC(=O)CNC(=O)[C@H](CC(C)C)NC(=O)[C@@H]4CSSC[C@H](NC(=O)[C@H]([C@@H](C)O)NC(=O)[C@H](C)NC(=O)[C@H](CSSC[C@@H](C(=O)N[C@@H](CO)C(=O)N[C@@H](CCCNC(=N)N)C(=O)N[C@H](C(N)=O)[C@@H](C)O)NC(=O)[C@@H]5CCCN5C(=O)[C@H](CC(N)=O)NC1=O)NC(=O)[C@@H]1CCCN1C(=O)[C@H](CC(=O)O)NC(=O)[C@H](CSSC[C@H](NC(=O)[C@H](CCCNC(=N)N)NC(=O)[C@H](CCCNC(=N)N)NC(=O)[C@H](CO)NC(=O)[C@@H](N)CO)C(=O)N[C@@H](C(C)C)C(=O)N[C@@H](CCCNC(=N)N)C(=O)N[C@@H](CC(C)C)C(=O)N[C@@H](Cc1c[nH]cn1)C(=O)N[C@@H](CCC(=O)O)C(=O)N[C@@H](CO)C(=O)N4)NC3=O)C(=O)N[C@@H](Cc1ccc(O)cc1)C(=O)N[C@H]1CSSC[C@H](NC(=O)[C@H](Cc3ccccc3)NC(=O)[C@H](C)NC(=O)[C@H](CC(N)=O)NC(=O)[C@H](Cc3ccccc3)NC(=O)[C@H](Cc3ccccc3)NC(=O)[C@H](CCCNC(=N)N)NC1=O)C(=O)N[C@@H](Cc1ccc(O)cc1)C(=O)N2 [ARP-(83-132)-NH2, SSRRCVRL HESCLGQQVPCCDPCATCYCRFFNAFCYCRKLGTAMNPCSRT]
effect on concentration-response curves evoked with norepinephrine, serotonin, PACAP-27, and Arg8-vasotocin [1]: no effect

CC[C@H](C)[C@H](NC(=O)[C@H](CCCNC(=N)N)NC(=O)[C@H](CCCNC(=N)N)NC(=O)[C@H](CC(C)C)NC(=O)[C@H](Cc1ccccc1)NC(=O)CNC(=O)CNC(=O)[C@@H](N)Cc1ccc(O)cc1)C(=O)N[C@@H](CCCNC(=N)N)C(=O)N1CCC[C@H]1C(=O)N[C@@H](CCCCN)C(=O)N[C@@H](CC(C)C)C(=O)N[C@@H](CCCCN)C(N)=O [dynorphin A(1-13)-NH2]
effect on basal or forskolin (3 μM) stimulated cAMP production ([2]; Y1 cells): did not significantly affect | shift of the concentration-response curve of ACTH-(1-24) to the right ([2]; Y1 cells): ~200 fold | estimated Kd ([2]; from shift in the ACTH concentration-response curve): submicromolar range | shift of α-MSH EC50 ([3]; 30 μM): ~50 fold | Kd ([3]; read-out: K4): ~1000 nM

CC[C@H](C)[C@H](NC(=O)[C@H](CCCNC(=N)N)NC(=O)[C@H](CCCNC(=N)N)NC(=O)[C@H](CC(C)C)NC(=O)[C@H](Cc1ccccc1)NC(=O)CNC(=O)CN)C(=O)N[C@@H](CCCNC(=N)N)C(=O)N1CCC[C@H]1C(=O)N[C@@H](CCCCN)C(=O)N[C@@H](CC(C)C)C(=O)N[C@@H](CCCCN)C(=O)O [dynorphin A(2-13)]
Dose ratio from α-MSH dose-response curves (MCR-4 [4]): 147±13 | shift of the concentration-response curve of ACTH-(1-24) to the right ([2]; Y1 cells): approximately 15 fold | Dose ratio from α-MSH dose-response curves (MCR-3 [5]): 128±44 | Dose ratio from α-MSH dose-response curves (MCR-1 [6]): 250±31

CC[C@H](C)[C@H](NC(=O)[C@@H](Cc1cccs1)NC(=O)[C@H](CC(C)C)NC(=O)[C@H](CC(C)C)NC(=O)[C@H](CCCCN)NC(=O)[C@H](CCCNC(=N)N)NC(=O)c1ccc(OC)cc1)C(=O)N[C@H](CC(C)C)C(N)=O [mystixin-7, p-anisoyl-Arg-Lys-Leu-Leu-D-Thi-Ile-D-Leu-NH2] ({Benzoyl(4-OMe)}-RKLL[d2Thi]I[dL]-NH2)
Anti-Inflammatory ED50 ([7]; i.v., suppression of heat-induced edema in the anesthetized rat's paw): 0.02 (0.014-0.059) mg/kg

Dynorphin A(2-17) [reference compound]
IC50 ([8]; against 600 pM α-MSH): 190 nM | anti-edema activity ([7]; in words): at least twice more active

Dynorphin A(6-17)
antagonist activity [8]: inactive

agouti-related protein (ARP): agouti-related protein cloned from non-epidermal tissues (SSRRCVRLHESCLGQQVPCCDPCATCYCRFFNAFCYCRKLGTAMNPCSRT; UniProt O00253 83-132, looked up)
effect on MCR-1 (MCR-1 [9]): little effect | inhibition for MCR-4 (MCR-4 [10]): dose dependent inhibition | inhibition for MCR-3 (MCR-3 [11]): dose dependent inhibition

α-MSH
stimulating cAMP accumulation in Y1 cells ([2]; up to concentrations of 10 μM): not effective | EC50 ([3]; read-out: EC50 of α-MSH for cAMP production): ~80 nM

B1: ASP: agouti-signaling protein, MCR antagonist elaborated by hair follicle melanocytes (protein, UniProt P42127 23-132, looked up)
Agouti-signaling protein: HLPPEEKLRDDRSLRSNSSVNLLDVPSVSIVALNKKSKQIGRKAAEKKRSSKKEASMKKVVRPRTPLSAPCVATRNSCKPPAPACCDPCASCQCRFFRSACSCRVLSLNC
EC50 [12]: 13 nM
